pIC50: −log10 of the molar value. In brackets after ≈: the same amount, converted by molar mass. Like-named read-outs stand apart in the source and are kept apart here.
Experiments:
Acinetobacter baumannii = assay: MIC; details: Acinetobacter baumannii
Staphylococcus aureus = assay: MIC
P-glycoprotein (P-gp) = P-glycoprotein (P-gp) (Homo sapiens, UniProt P08183); assay: P-gp substrate determination; format: in vitro ADME
E. faecalis / E. faecium = assay: MIC
Permeability = format: in vitro ADME
[1] = target: bile salt export pump (BSEP) (Homo sapiens, UniProt O95342); assay: BSEP inhibition and substrate determination; format: in vitro ADME; details: up to 50 µM
Enterococcus faecalis = assay: MIC; details: read-out: median MIC
[2] = First-in-human SAD study, PK; format: in vivo, healthy human volunteers; details: for half-life: both, human, plasma, iv
[3] = Dog pharmacokinetic study; format: in vivo, Beagle dog; details: dogs
E. coli [4] = assay: Killing kinetics assay; format: cell-based; details: 0.5X to 16X MIC, susceptible and MDR strains
P. aeruginosa [5] = tested on: P. aeruginosa
[6] = Rat 14-day GLP toxicology / toxicokinetics; format: in vivo
[7] = Hepatocyte stability / intrinsic clearance; format: in vitro ADME, human
[8] = Dog 14-day GLP toxicology; format: in vivo
Escherichia coli = assay: MIC
K. pneumoniae [9] = assay: Neutropenic rat lung infection model; details: IV infusion, MDR isolates
[10] = tested on: MDR Gram-negative and Gram-positive pathogens; assay: MIC
[11] = target: acetylcholine esterase (AChE) (Homo sapiens, UniProt P22303); assay: AChE inhibition, reversibility on dilution; format: biochemical; details: 30 μM, 100-fold dilution to 0.3 μM, excess AChE
Klebsiella pneumoniae = assay: MIC
[12] = tested on: AChE, MAO-B, Adrenergic α1 A, 5-HT1A; assay: Cerep-88 secondary pharmacology screen
Proteus spp. = assay: MIC; details: IHMA/CARB-X MDR clinical isolates 2019, N=152
[13] = tested on: diverse Gram-negative pathogens
A. baumannii = details: in vivo, iv
E. coli [14] = assay: Neutropenic mouse; format: in vivo; details: SC every 8 h, wild-type and MDR isolates
[15] = Blood-brain barrier crossing
Serratia marcescens = assay: MIC; details: IHMA/CARB-X MDR clinical isolates 2019, N=45
E. coli [16] = tested on: E. coli
hERG = hERG (Homo sapiens, UniProt Q12809); assay: hERG manual patch-clamp; format: cell-based
P. aeruginosa [17] = assay: Neutropenic mouse; format: in vivo
[18] = Plasma protein binding, equilibrium dialysis; format: in vitro ADME, rats; details: % bound
[19] = Hepatocyte stability / intrinsic clearance; format: in vitro ADME, dog
[20] = Hepatocyte stability / intrinsic clearance; format: in vitro ADME, rat
[21] = First-in-human SAD study, safety and tolerability; format: in vivo, healthy human volunteers; details: single IV infusion 120-1050 mg
K. pneumoniae [22] = assay: Killing kinetics assay; format: cell-based; details: 0.5X to 16X MIC, susceptible and MDR strains
E. cloacae = format: cell-based
Morganella morganii = assay: MIC; details: IHMA/CARB-X MDR clinical isolates 2019, N=42
Neisseria gonorrhoeae = assay: MIC; details: IHMA/CARB-X isolates 1997 to 2021, N=90
[23] = IVIVE of clearance in humans; set-up: species or system human
[24] = Prediction of human PK by allometry / 2-compartment model; details: 70 kg
MAD study C002-2023-01 = format: in vivo, healthy human volunteers; details: 240 mg, two subjects
[25] = IHMA/CARB-X MDR clinical isolates 2019, N=300

P-glycoprotein (P-gp), sequence (P08183 whole entry): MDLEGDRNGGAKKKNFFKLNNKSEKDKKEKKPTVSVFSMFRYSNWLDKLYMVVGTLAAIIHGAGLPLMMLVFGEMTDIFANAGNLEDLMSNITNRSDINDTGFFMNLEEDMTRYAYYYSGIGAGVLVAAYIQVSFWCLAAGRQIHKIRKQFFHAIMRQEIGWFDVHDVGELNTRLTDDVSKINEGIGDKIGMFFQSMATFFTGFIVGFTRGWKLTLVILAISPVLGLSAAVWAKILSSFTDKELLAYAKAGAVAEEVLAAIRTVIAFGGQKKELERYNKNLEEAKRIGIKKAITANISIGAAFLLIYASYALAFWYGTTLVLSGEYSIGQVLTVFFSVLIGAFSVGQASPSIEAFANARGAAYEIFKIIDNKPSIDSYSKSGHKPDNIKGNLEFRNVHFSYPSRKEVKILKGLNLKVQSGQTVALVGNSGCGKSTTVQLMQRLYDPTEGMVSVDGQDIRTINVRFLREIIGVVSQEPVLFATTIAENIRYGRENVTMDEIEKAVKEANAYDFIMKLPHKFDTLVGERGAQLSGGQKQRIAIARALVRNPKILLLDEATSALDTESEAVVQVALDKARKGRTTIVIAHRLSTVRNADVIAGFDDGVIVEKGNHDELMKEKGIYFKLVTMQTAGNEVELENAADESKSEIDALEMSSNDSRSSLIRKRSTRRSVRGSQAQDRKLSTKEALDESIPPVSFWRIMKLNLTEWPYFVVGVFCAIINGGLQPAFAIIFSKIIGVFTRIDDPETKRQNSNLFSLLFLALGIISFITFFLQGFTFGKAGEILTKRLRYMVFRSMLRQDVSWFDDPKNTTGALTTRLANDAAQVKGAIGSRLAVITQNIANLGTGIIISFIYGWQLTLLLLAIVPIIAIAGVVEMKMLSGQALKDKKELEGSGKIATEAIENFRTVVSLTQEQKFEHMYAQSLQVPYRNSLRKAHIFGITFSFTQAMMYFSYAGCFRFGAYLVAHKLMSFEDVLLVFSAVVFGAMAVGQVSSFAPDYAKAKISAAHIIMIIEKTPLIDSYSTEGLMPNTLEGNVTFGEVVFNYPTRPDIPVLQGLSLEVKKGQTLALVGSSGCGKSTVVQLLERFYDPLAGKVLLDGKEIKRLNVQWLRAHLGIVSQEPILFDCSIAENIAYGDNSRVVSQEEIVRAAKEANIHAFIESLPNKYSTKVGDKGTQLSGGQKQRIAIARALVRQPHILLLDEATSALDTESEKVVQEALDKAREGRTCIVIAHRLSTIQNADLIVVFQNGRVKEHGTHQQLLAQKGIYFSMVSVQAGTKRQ
acetylcholine esterase (AChE), sequence (P22303 32-614): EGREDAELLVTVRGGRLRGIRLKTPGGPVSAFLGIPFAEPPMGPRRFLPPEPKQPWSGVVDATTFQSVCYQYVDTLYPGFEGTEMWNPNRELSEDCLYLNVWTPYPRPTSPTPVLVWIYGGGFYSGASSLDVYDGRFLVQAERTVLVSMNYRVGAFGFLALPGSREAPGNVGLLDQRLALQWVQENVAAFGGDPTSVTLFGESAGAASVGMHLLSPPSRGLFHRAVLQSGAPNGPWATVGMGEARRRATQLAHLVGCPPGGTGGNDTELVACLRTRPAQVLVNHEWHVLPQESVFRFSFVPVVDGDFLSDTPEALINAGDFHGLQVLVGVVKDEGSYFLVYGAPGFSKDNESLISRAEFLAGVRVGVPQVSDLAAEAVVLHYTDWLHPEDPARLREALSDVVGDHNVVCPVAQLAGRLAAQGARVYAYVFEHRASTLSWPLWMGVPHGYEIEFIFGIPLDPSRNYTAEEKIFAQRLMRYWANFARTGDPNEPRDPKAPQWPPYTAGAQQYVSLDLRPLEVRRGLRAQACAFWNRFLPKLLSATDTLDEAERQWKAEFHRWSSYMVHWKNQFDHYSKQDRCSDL
bile salt export pump (BSEP), sequence (O95342 whole entry, species assumed): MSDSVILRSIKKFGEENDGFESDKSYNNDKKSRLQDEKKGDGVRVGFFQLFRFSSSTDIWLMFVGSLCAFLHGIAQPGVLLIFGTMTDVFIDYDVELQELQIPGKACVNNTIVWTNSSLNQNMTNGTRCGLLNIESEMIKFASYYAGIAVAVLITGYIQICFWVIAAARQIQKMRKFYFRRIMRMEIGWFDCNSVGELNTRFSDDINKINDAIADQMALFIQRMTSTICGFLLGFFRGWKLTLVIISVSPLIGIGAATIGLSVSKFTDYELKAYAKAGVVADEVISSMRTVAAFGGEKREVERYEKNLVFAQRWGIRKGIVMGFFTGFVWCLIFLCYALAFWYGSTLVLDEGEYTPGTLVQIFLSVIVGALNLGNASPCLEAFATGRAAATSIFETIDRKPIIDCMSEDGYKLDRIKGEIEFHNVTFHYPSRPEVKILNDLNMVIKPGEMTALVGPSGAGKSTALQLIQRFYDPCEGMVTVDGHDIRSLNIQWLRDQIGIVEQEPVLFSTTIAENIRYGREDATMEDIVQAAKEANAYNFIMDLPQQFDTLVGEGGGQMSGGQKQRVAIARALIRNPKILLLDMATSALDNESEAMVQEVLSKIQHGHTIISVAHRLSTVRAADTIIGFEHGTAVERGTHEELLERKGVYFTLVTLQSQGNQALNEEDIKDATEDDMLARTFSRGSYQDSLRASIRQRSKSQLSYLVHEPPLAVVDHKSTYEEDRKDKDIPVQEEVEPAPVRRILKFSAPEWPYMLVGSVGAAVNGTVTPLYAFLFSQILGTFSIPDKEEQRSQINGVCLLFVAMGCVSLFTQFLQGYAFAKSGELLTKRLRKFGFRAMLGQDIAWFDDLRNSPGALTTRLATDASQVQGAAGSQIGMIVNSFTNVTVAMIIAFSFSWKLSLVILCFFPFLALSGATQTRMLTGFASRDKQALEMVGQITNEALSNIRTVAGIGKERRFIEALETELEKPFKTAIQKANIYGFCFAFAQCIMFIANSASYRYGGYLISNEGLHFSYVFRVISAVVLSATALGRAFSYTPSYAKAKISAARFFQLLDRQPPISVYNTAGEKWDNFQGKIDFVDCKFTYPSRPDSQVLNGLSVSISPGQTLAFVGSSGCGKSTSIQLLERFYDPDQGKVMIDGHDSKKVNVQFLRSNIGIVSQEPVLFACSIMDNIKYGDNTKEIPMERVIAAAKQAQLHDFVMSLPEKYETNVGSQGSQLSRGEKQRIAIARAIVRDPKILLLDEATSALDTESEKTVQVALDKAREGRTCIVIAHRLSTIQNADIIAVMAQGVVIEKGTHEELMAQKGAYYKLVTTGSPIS
hERG, sequence (Q12809 whole entry): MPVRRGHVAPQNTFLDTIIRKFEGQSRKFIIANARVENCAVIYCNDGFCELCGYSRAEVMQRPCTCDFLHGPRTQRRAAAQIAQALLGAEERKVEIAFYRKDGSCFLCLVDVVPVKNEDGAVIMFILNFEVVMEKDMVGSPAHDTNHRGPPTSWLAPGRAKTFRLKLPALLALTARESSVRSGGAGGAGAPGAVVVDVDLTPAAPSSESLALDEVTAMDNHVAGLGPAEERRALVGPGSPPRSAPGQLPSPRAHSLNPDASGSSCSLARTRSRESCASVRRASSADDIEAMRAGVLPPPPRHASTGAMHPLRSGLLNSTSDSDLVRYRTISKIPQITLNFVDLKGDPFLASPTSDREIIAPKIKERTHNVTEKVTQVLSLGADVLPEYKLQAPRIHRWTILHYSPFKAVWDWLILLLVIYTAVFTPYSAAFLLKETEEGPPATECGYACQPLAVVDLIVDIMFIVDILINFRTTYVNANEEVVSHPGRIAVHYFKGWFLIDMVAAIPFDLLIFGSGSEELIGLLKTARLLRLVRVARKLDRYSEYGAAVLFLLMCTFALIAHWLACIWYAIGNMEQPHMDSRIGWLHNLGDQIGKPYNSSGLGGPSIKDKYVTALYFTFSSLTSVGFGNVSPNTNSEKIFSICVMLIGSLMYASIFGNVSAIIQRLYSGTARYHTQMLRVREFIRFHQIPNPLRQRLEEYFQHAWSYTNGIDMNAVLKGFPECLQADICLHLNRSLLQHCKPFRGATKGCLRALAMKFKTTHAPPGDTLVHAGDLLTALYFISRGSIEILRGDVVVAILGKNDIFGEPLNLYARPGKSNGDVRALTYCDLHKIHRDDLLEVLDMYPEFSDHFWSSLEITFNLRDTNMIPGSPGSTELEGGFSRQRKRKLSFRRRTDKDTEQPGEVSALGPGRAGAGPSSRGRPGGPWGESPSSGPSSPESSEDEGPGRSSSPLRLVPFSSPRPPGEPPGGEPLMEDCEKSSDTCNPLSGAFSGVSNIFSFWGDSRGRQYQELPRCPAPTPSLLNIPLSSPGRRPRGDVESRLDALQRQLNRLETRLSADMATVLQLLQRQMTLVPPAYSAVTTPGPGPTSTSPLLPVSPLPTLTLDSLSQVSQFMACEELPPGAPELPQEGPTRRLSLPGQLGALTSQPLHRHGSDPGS

Question: With `Cn1c(=O)ccc2ccc(F)c(CCNC[C@H]3CN(c4cnc5c(n4)NC(=O)CO5)C(=O)O3)c21` [BWC0977, 6-[(5S)−5-[[[2-(7-Fluoro-1,2-dihydro-1-methyl-2-oxo-8-quinolinyl)ethyl]amino]methyl]−2-oxo-3-oxazolidinyl]−2H-pyrazino[2,3-b]−1,4-oxazin-3(4H)-one] as the compound, how does the MIC90 (Acinetobacter baumannii; IHMA/CARB-X MDR clinical isolates 2019, N=298) read?
Answer: Its MIC90 is 1 µg/mL (≈ 2.13 µM).

Question: And the MIC (Acinetobacter baumannii; read-out: median MIC, panel of ATCC strains)?
Answer: Its MIC is 0.06 µg/mL (≈ 0.128 µM).

Question: What about the MIC (Staphylococcus aureus; Staphylococcus aureus, read-out: median MIC) of the same compound?
Answer: The MIC was 0.01 µg/mL (≈ 0.0213 µM).

Question: What about the MIC90 (Staphylococcus aureus; global panel, N=560, including MRSA) of the same compound?
Answer: Its MIC90 is 0.03 µg/mL (≈ 0.064 µM).

Question: What about the P-gp substrate status (P-glycoprotein (P-gp)) of the same compound?
Answer: Its P-gp substrate status is “substrate”.

Question: What about the MIC90 (E. faecalis / E. faecium) of the same compound?
Answer: The MIC90 was 0.06 µg/mL (≈ 0.128 µM).

Question: And the permeability (Permeability)?
Answer: The permeability was “low permeability”.

Question: And the “BSEP substrate / inhibitor status” value [1]?
Answer: The value was “neither a substrate nor an inhibitor”.

Question: What about the MIC (Enterococcus faecalis) of the same compound?
Answer: The MIC was 0.06 µg/mL (≈ 0.128 µM).

Question: What about the “VD at steady state (Vss) across the dose levels” value ([2]; 120-1050 mg) of the same compound?
Answer: Its value is 44.03 to 51.50 L/h.

Question: What about the “dose proportionality of plasma Cmax and AUC” value ([2]; 120-1050 mg) of the same compound?
Answer: Its value is “increased proportionally with dose”.

Question: And the half-life ([2]; 120 mg)?
Answer: The half-life was 3.3 h.

Question: What about the half-life ([2]; 1050 mg) of the same compound?
Answer: The half-life was 8.4 h.

Question: And the “unchanged drug excreted in urine” value [3]?
Answer: The value was 10%.

Question: What about the “in vitro killing kinetics” value (E. coli [4]) of the same compound?
Answer: Its value is “significant bactericidal activity”.

Question: What about the “in vitro resistance frequency” value (P. aeruginosa [5]) of the same compound?
Answer: The value was < 1 × 10^−9.

Question: What about the resistance frequency (P. aeruginosa [5]) of the same compound?
Answer: Its resistance frequency is < 1 × 10^−9.

Question: And the “AUC0–24 at NOAEL” value ([6]; 75 mg/kg/day)?
Answer: Its value is 52000 ng·h/mL.

Question: What about the NOAEL at 14 day ([6]; in vivo) of the same compound?
Answer: Its NOAEL at 14 day is 75 mg/kg/day.

Question: What about the Cmax ([6]; in vivo, 75 mg/kg/day) of the same compound?
Answer: The Cmax was 26000 ng/mL.

Question: What about the AUC(0-t) ([6]; in vivo, 250 mg/kg/day, AUC0–24 at highest dose level) of the same compound?
Answer: The AUC(0-t) was 355000 ng·h/mL.

Question: And the microscopic findings ([6]; up to 250 mg/kg/day)?
Answer: Its microscopic findings is “no microscopic findings”.

Question: And the “clearance predicted from CLint, % of liver blood flow (LBF)” value (shortened to “clearance predicted from CLint, %”) [7]?
Answer: Its value is < 30%.

Question: And the microscopic findings ([8]; dose levels above 40 mg/kg/day)?
Answer: Its microscopic findings is “Microscopic changes consistent with hepatobiliary toxicity”.

Question: What about the NOAEL at 14 day ([8]; in vivo) of the same compound?
Answer: The NOAEL at 14 day was 40 mg/kg/day.

Question: What about the AUC(0-t) ([8]; in vivo, 40 mg/kg/day) of the same compound?
Answer: The AUC(0-t) was 90000 ng·h/mL.

Question: What about the Cmax ([8]; in vivo, 40 mg/kg/day) of the same compound?
Answer: Its Cmax is 25000 ng/mL.

Question: And the MIC (Escherichia coli; Escherichia coli, read-out: median MIC, panel of ATCC strains)?
Answer: The MIC was 0.03 µg/mL (≈ 0.064 µM).

Question: And the MIC90 (Escherichia coli; [25])?
Answer: Its MIC90 is 0.5 µg/mL (≈ 1.07 µM).

Question: And the dose-response efficacy (K. pneumoniae [9])?
Answer: Its dose-response efficacy is “excellent bactericidal dose-response”.

Question: And the MIC90 [10]?
Answer: The MIC90 was 0.03 to 2 µg/mL (≈ 0.064 to 4.27 µM).

Question: And the “reversibility of AChE inhibition” value [11]?
Answer: Its value is “rapidly reversed”.

Question: And the MIC90 (Klebsiella pneumoniae; [25])?
Answer: Its MIC90 is 2 µg/mL (≈ 4.27 µM).

Question: What about the MIC (Klebsiella pneumoniae; Klebsiella pneumoniae, read-out: median MIC, panel of ATCC strains) of the same compound?
Answer: The MIC was 0.03 µg/mL (≈ 0.064 µM).

Question: And the “result in Cerep-88 screen” value [12]?
Answer: The value was “hits”.

Question: And the MIC90 (Proteus spp.)?
Answer: The MIC90 was 0.5 µg/mL (≈ 1.07 µM).

Question: What about the spontaneous resistance frequency [13] of the same compound?
Answer: The spontaneous resistance frequency was < 10^−9.

Question: And the dose-response efficacy (A. baumannii)?
Answer: The dose-response efficacy was “excellent bactericidal dose-response”.

Question: What about the “dose-ranging efficacy (bacterial burden)” value (E. coli [14]) of the same compound?
Answer: Its value is “excellent dose-response”.

Question: What about the “crossing of the blood-brain barrier” value [15] of the same compound?
Answer: The value was “nor crosses the blood-brain barrier”.

Question: And the MIC90 (Serratia marcescens)?
Answer: The MIC90 was 1 µg/mL (≈ 2.13 µM).

Question: And the “in vitro resistance frequency” value (E. coli [16])?
Answer: The value was < 1 × 10^−9.

Question: What about the resistance frequency (E. coli [16]) of the same compound?
Answer: The resistance frequency was 4 × 10^−9.

Question: And the pIC50 (hERG)?
Answer: The pIC50 was 4.30.

Question: And the “dose-ranging efficacy (bacterial burden)” value (P. aeruginosa [17]; SC every 8 h, wild-type and MDR isolates)?
Answer: Its value is “excellent dose-response”.

Question: What about the “PK-PD driver of efficacy” value (P. aeruginosa [17]; dose fractionation 160 mg/kg/day SC, P. aeruginosa NCTC 13921) of the same compound?
Answer: Its value is “free area-under-the-curve over MIC (fAUC/MIC) as the efficacy driver”.

Question: And the plasma protein binding [18]?
Answer: Its plasma protein binding is 94%.

Question: What about the “clearance predicted from CLint, %” value [19] of the same compound?
Answer: The value was < 30%.

Question: What about the “clearance predicted from CLint, %” value [20] of the same compound?
Answer: The value was < 30%.

Question: What about the tolerability [21] of the same compound?
Answer: Its tolerability is “generally well tolerated”.

Question: And the “in vitro killing kinetics” value (K. pneumoniae [22])?
Answer: The value was “significant bactericidal activity”.

Question: What about the “in vitro killing kinetics” value (E. cloacae) of the same compound?
Answer: Its value is “significant bactericidal activity”.

Question: What about the MIC90 (Morganella morganii) of the same compound?
Answer: Its MIC90 is 1 µg/mL (≈ 2.13 µM).

Question: What about the MIC90 (Morganella morganii; Morganella morganii) of the same compound?
Answer: The MIC90 was 1 µg/mL (≈ 2.13 µM).

Question: And the MIC90 (Neisseria gonorrhoeae)?
Answer: The MIC90 was ≤ 0.016 µg/mL.

Question: What about the “predicted human plasma CLp” value [23] of the same compound?
Answer: Its value is 5.5 mL/min/kg.

Question: What about the “predicted % human LBF” value ([23]; human LBF […]) of the same compound?
Answer: Its value is 28%.

Question: What about the “predicted human CL” value [24] of the same compound?
Answer: The value was 20.17 L/h.

Question: And the “predicted human CLD2” value [24]?
Answer: The value was 1.002 L/h.

Question: And the “predicted human V1” value [24]?
Answer: Its value is 40.84 L.

Question: What about the “predicted human V2” value [24] of the same compound?
Answer: The value was 23.13 L.

Question: What about the systemic adverse events (MAD study C002-2023-01) of the same compound?
Answer: The systemic adverse events was “no systemic adverse events”.

Question: And the “infusion site finding on ultrasound” value (MAD study C002-2023-01; 12/14 and 14/14 doses)?
Answer: Its value is “small non-occlusive thrombus proximal to the infusion site in both volunteers”.
